The values below come from US8178678B2, “Bis-quaternary ammonium salts and methods for modulating neuronal nicotinic acetylcholine receptors” (University of Kentucky Research Foundation, priority 2006, dated 2012).

The target of test [1] is T1, Rat Striatal Nicotinic Receptors ([^3H]NIC binding sites; α4β2) (Rattus norvegicus, UniProt P09483+P12390).
T1 construct: Whole brain, excluding cortex and cerebellum, was homogenized in 20 vol of ice-cold buffer; from tissue; host or cells: rat brain membranes (whole brain excluding cortex and cerebellum)
In words: Inhibition of [^3H]NIC binding. The following applies: 1 h; 100 nM analog; 3 nM [^3H]NIC; nonspecific 10 μM cytisine; rat brain membranes. The procedure:
(§1) Homogenate was centrifuged (25,000 g, 15 min, 4° C). Pellets were resuspended in 20 vol buffer and incubated at 37° C., for 10 min, cooled to 4° C. and centrifuged (25,000 g, 15 min, 4° C.). Pellets were resuspended and centrifuged using the same conditions. […] Upon use, final pellets were resuspended in 20 vol assay buffer. Samples (250 μl) contained 100-140 μg of membrane protein, 3 nM [^3H]-S-nicotine or 3 nM [^3H]-methyllycaconitine (MLA), and bis-quaternary ammonium analog (100 nM) in assay buffer containing 50 mM Tris. Control was in the absence of analog. In [^3H]-S-nicotine and [^3H]-methyllycaconitine binding assays, nonspecific binding was determined in the presence of 10 μM cytisine and 10 μM S-nicotine, respectively. Incubations proceeded for 60 min at room temperature using 96-well plates and were terminated by harvesting on Unifilter-96 GF/B filter plates presoaked in 0.5% polyethylenimine, using a Packard FilterMate harvester. After washing 5 times with 350 μl ice-cold assay buffer, filter plates were dried (60 min, 4° C.), bottom-sealed, and filled with Packard's MicroScint 20 cocktail (40 μl/well). After 60 min, filter plates were top-sealed, and radioactivity determined using a Packard TopCount. Protein concentrations were determined using the Bradford dye-binding procedure bovine serum albumin as the standard.
Specific binding in the [^3H]NIC binding assay is calculated as the difference between the total binding of 3 nM [^3H]NIC and nonspecific binding in the presence of 10 μM cold cytisine. […] Analog-induced inhibition of S-nicotine-evoked [^3H]DA release is calculated as a percent of that in the absence of the bis-quaternary ammonium analog.

In test [2] the target is T2, Rat Striatal Nicotinic Receptors ([^3H]MLA binding sites; α7) (Rattus norvegicus, UniProt Q05941).
T2 construct: Whole brain, excluding cortex and cerebellum, was homogenized in 20 vol of ice-cold buffer; from tissue; host or cells: rat brain membranes (whole brain excluding cortex and cerebellum)
Briefly: Inhibition of [^3H]MLA (methyllycaconitine) binding. The following applies: 100 nM analog; [^3H]MLA; nonspecific S-nicotine; rat brain membranes; read-out: [^3H]MLA binding, % inhibition. The procedure: as §1, with “standard. […]” for “standard.”

T1 sequence (P09483 31-630): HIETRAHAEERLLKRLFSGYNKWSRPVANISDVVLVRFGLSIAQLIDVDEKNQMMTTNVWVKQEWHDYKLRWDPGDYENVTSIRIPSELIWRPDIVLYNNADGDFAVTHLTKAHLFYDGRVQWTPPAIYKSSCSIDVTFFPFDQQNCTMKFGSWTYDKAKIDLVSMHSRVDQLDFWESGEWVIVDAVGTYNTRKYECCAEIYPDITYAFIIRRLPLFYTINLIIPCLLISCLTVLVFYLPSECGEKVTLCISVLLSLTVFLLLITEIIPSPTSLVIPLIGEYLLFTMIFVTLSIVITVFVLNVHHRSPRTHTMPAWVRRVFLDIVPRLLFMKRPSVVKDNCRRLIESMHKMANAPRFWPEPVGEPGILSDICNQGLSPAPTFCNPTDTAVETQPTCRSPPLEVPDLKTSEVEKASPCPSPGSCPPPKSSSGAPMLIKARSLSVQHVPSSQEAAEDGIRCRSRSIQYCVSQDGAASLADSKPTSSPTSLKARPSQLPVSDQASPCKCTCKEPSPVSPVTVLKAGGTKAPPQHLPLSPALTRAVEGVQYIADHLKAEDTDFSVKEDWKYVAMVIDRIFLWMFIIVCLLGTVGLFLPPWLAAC
T1 sequence (P12390 25-500): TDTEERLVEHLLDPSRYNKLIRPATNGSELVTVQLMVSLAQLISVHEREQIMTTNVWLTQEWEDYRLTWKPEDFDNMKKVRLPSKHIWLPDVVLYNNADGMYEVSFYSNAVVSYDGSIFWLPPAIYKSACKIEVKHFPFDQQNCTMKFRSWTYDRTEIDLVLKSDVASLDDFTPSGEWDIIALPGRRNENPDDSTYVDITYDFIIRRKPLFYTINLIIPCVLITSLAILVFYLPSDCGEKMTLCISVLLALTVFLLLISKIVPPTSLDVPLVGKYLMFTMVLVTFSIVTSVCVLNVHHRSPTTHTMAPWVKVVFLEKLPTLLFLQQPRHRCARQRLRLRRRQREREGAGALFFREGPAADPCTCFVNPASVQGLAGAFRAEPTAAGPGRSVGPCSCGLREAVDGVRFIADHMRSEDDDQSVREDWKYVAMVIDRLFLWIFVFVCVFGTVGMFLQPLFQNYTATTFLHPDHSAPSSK
T2 sequence (Q05941 23-502): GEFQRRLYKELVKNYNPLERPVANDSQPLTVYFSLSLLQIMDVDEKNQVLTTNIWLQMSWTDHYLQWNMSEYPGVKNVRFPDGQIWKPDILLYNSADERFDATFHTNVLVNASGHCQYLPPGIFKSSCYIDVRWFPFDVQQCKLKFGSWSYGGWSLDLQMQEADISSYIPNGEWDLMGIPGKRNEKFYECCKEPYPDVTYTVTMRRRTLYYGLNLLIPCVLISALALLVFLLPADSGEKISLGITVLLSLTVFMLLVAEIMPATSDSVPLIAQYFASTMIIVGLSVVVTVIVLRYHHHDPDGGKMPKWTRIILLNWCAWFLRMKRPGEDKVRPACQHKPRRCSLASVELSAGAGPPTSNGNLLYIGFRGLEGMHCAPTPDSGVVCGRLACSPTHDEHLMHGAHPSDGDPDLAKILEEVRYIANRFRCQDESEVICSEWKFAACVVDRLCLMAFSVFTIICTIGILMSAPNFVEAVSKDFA

What is called inhibition is the drop in the measured response relative to a control, in per cent. Consider `Cc1cc[n+](CCCc2ccc(-c3ccc(CCC[n+]4ccc(C)c(C)c4)cc3)cc2)cc1C` [Example 72, N,N′-[(1,1′-biphenyl)-4,4′-di-(3-propanyl)]-bis-(3,4-dimethylpyridinium)dibromide], for which the values for the inhibition at 0.1 µM in test [1] and in test [2] were 0% and 5.5%, respectively.

For `Cc1cc(C)c[n+](CCCCc2ccc(CCCC[n+]3cc(C)cc(C)c3)cc2)c1` [Example 20, N,N′-[1,4-phenylenedi-(4-butanyl)]-bis-(3,5-dimethylpyridinium)dibromide], the figures for the inhibition at 0.1 µM in test [1] and in test [2] were 1% and 0%, respectively.

Regarding `Cc1cc[n+](CCCCc2ccc(CCCC[n+]3ccc(C)cc3C)cc2)c(C)c1` [Example 18, N,N′-[1,4-phenylenedi-(4-butanyl)]-bis-(2,4-dimethylpyridinium)dibromide], the inhibition at 0.1 µM in test [1] and in test [2] was 0% in each case.

Regarding `Cc1ccc[n+](CC#Cc2ccc(-c3ccc(C#CC[n+]4cccc(C)c4)cc3)cc2)c1` [Example 102, N,N′-[(1,1′-biphenyl)-4,4′-di-(1-propyn-3-yl)]-bis-(3-methylpyridinium)dibromide], the inhibition at 0.1 µM in test [1] was found to be 9.4%; in test [2], 12%.

In the case of `Cc1cc[n+](CCCC/C=C\C=C/CCCC[n+]2ccc(C)c(C)c2)cc1C` [Example 8, cis-cis-N,N′-(dodeca-5,7-diene-1,12-diyl)-bis-(3,4-dimethyl-pyridinium)dibromide], the inhibition at 0.1 µM in test [1] and in test [2] was 0% each time.

For the compound `Cc1cc[n+](CCCc2ccc(-c3ccc(CCC[n+]4ccc(C)cc4C)cc3)cc2)c(C)c1` [Example 73, N,N′-[(1,1′-biphenyl)-4,4′-di-(3-propanyl)]-bis-(2,4dimethylpyridinium)dibromide], the inhibition at 0.1 µM in test [1] was 3%; in test [2] it was 0.6%.

As for `Cc1cc[n+](CC#Cc2ccc(-c3ccc(C#CC[n+]4ccc(C)c(C)c4)cc3)cc2)cc1C` [Example 104, N,N′-[(1,1′-biphenyl)-4,4′-di-(1-propyn-3-yl)]-bis-(3,4-dimethylpyridinium)dibromide], the inhibition at 0.1 µM in test [1] was determined as 19%; in test [2], 16%.

Consider `CCCCc1ccc[n+](CCCC#Cc2cccc(C#CCCC[n+]3cccc(CCCC)c3)c2)c1` [Example 57, 1,3-bis-[5-(3-n-butyl-pyridinium)-pent-1-ynyl]-benzene dibromide], for which the figures for the inhibition at 0.1 µM in test [1] and in test [2] were 3.5% and 8.7%, respectively.

As to `OCCCc1ccc[n+](CCCc2ccc(-c3ccc(CCC[n+]4cccc(CCCO)c4)cc3)cc2)c1` [Example 74, N,N′-[(1,1′-biphenyl)-4,4′-di-(3-propanyl)]-bis-[3-(3-hydroxy-propyl)-pyridinium]dibromide], the inhibition at 0.1 µM is 2% in test [1] and 5.8% in test [2].

As to `OCCCc1ccc[n+](CCOCCOCCOCC[n+]2cccc(CCCO)c2)c1` [Example 86, N,N′-{2,2′-[oxybis-(2,1-ethandiyloxy)]bis-ethyl}-bis-[3-(3-hydroxypropyl)-pyridinium]dichloride], the inhibition at 0.1 µM in test [1] stood at 8.2%; in test [2], 8.5%.

`Cc1cc[n+](CCOCCOCCOCC[n+]2ccc(C)cc2C)c(C)c1` [Example 88, N,N′-{2,2′-[oxybis-(2,1-ethandiyloxy)]bis-ethyl}-bis-(2,4-dimethylpyridinium)dichloride]: the inhibition at 0.1 µM in test [1] stood at 0%; in test [2] it was 2.9%.

In the case of `Cc1cc(C)c[n+](CCCc2ccc(-c3ccc(CCC[n+]4cc(C)cc(C)c4)cc3)cc2)c1` [Example 71, N,N′-[(1,1′-biphenyl)-4,4′-di-(3-propanyl)]-bis-(3,5-dimethylpyridinium)dibromide], the figures for the inhibition at 0.1 µM in test [1] and in test [2] were 1.6% and 3.6%, respectively.

Consider `Cc1cc[n+](CC#Cc2ccc(-c3ccc(C#CC[n+]4ccc(C)cc4)cc3)cc2)cc1` [Example 103, N,N′-[(1,1′-biphenyl)-4,4′-di-(1-propyn-3-yl)]-bis-(4-methylpyridinium)dibromide], for which the inhibition at 0.1 µM came to 9.6% in test [1] and 12% in test [2].

For `Cc1cc[n+](CCCc2ccc(-c3ccc(CCC[n+]4ccc(C)cc4)cc3)cc2)cc1` [Example 77, N,N′-[(1,1′-biphenyl)-4,4′-di-(3-propanyl)]-bis-(4-methylpyridinium)dibromide], the inhibition at 0.1 µM in test [1] and in test [2] was 0% in each case.

For the compound `Cc1cc[n+](CCOCCOCCOCC[n+]2ccc(C)c(C)c2)cc1C` [Example 89, N,N′-{2,2′-[oxybis-(2,1-ethandiyloxy)]bis-ethyl}-bis-(3,4-dimethylpyridinium)dichloride], the inhibition at 0.1 µM in test [1] was 13%; in test [2], 14%.

As to `Cc1cccc[n+]1CCCc1ccc(-c2ccc(CCC[n+]3ccccc3C)cc2)cc1` [Example 79, N,N′-[(1,1′-biphenyl)-4,4′-di-(3-propanyl)]-bis-(2-methylpyridinium)dibromide], the inhibition at 0.1 µM in test [1] and in test [2] was 0% throughout.

As to `c1cc2c([n+](CCOCCOCCOCC[n+]3cccc4c3CCCC4)c1)CCCC2` [Example 84, N,N′-{2,2′-[oxybis-(2,1-ethandiyloxy)]bis-ethyl}-bis(5,6,7,8-tetrahydroquinolinium)dichloride], the inhibition at 0.1 µM in test [1] worked out at 0%; in test [2], 4.7%.

As to `Cc1cc[n+](CCCCc2ccc(CCCC[n+]3ccc(C)c(C)c3)cc2)cc1C` [Example 19, N,N′-[1,4-phenylenedi-(4-butanyl)]-bis-(3,4-dimethylpyridinium)dibromide], the inhibition at 0.1 µM in test [1] and in test [2] was 0% throughout.

As for `c1c[n+](CCOCCOCCOCC[n+]2ccc3c(c2)CCCC3)cc2c1CCCC2` [Example 85, N,N′-{2,2′-[oxybis-(2,1-ethandiyloxy)]bis-ethyl}-bis(5,6,7,8-tetrahydroisoquinolinium)dichloride], the inhibition at 0.1 µM in test [1] worked out at 6%; in test [2], 16%.

Regarding `CCCCc1ccc[n+](CCCCCc2ccccc2CCCCC[n+]2cccc(CCCC)c2)c1` [Example 43, 1,2-bis-[5-(3-n-butyl-pyridinium)-pentyl]-benzene dibromide], the inhibition at 0.1 µM in test [1] was 0.8%; in test [2], 5.5%.

As for `CCc1ccc[n+](CCCCc2ccc(CCCC[n+]3cccc(CC)c3)cc2)c1` [Example 14, N,N′-[1,4-phenylenedi-(4-butanyl)]-bis-(3-ethylpyridinium)dibromide], the inhibition at 0.1 µM in test [1] amounted to 2%; in test [2], 4%.

With `Cc1cc[n+](CCCC/C=C\C=C/CCCC[n+]2ccc(C)cc2C)c(C)c1` [Example 7, cis-cis-N,N′-(dodeca-5,7-diene-1,12-diyl)-bis-(2,4-dimethyl-pyridinium)dibromide], the inhibition at 0.1 µM was 1% in test [1] and 6% in test [2].

With `Cc1cc(C)c[n+](CCCC/C=C\C=C/CCCC[n+]2cc(C)cc(C)c2)c1` [Example 9, cis-cis-N,N′-(dodeca-5,7-diene-1,12-diyl)-bis-(3,5-dimethyl-pyridinium)dibromide], the inhibition at 0.1 µM in test [1] and in test [2] was 0% in each case.

Take `Cc1cc(C)c[n+](CCOCCOCCOCC[n+]2cc(C)cc(C)c2)c1` [Example 90, N,N′-{2,2′-[oxybis-(2,1-ethandiyloxy)]bis-ethyl}-bis-(3,5-dimethylpyridinium)dichloride]: the inhibition at 0.1 µM in test [1] is 10%; in test [2], 5%.

Consider `CN1CCC[C@H]1c1ccc[n+](CCOCCOCCOCC[n+]2cccc([C@@H]3CCCN3C)c2)c1` [Example 80, N,N′-{2,2′-[oxybis-(2,1-ethandiyloxy)]bis-ethyl}-bis-[3-(2′-S-1-methyl-pyrrolidin-2-yl)-pyridinium]dichloride], for which the inhibition at 0.1 µM in test [1] turned out to be 7.2%; in test [2], 13%.
